Experimental findings from patent US20250152585A1, “PHARMACEUTICAL COMPOUND” (Duke Street Bio Limited, priority 2022, published 2025) are described below.

Test [1] concerns the target T1, full length N-terminally FLAG-tagged PARP1 (Homo sapiens, UniProt P09874). The experiment in a line: PARP1 biochemical DELFIA assay (auto-PARylation). Details: recombinant full length human N-terminally FLAG-tagged PARP1.
Test [2] deals with T1, full length N-terminally FLAG-tagged PARP1. In words: PARP1 probe displacement HTRF assay. Particulars: for Selectivity: PARP1 over PARP2, ratio Kd (PARP2)/Kd (PARP1); for Kd: binned Kd. (In general: TR-FRET usually uses a lanthanide donor and a delayed reading to cut background.)
Test [3] has as its target T2, N-terminally FLAG-tagged PARP2 (amino acids 1-583) (Homo sapiens, UniProt Q9UGN5).
T2 construct: N-terminally FLAG-tagged PARP2 (amino acids 1-583)
In words: PARP2 probe displacement HTRF assay. In kind it is binding. Particulars: binned Kd. The procedure: Data analysis was performed identical as for PARP1.

The mark [4] stands for this setting: binned IC50, PARP1 biochemical DELFIA assay.
Where [5] appears, read: read-out: PARP1 HTRF, PARP1 probe displacement HTRF.
Setting [6] is: binned IC50, biochemical auto-PARylation assay.
[7] abbreviates: read-out: PARP1 HTRF, probe displacement HTRF.
The mark [8] stands for this setting: PARP1 HTRF, PARP1 probe displacement HTRF.

Molecules are shown by their SMILES. Read-outs that look alike come from different tables or passages of the source.

T2 sequence (Q9UGN5 whole entry, the tested form may be a part): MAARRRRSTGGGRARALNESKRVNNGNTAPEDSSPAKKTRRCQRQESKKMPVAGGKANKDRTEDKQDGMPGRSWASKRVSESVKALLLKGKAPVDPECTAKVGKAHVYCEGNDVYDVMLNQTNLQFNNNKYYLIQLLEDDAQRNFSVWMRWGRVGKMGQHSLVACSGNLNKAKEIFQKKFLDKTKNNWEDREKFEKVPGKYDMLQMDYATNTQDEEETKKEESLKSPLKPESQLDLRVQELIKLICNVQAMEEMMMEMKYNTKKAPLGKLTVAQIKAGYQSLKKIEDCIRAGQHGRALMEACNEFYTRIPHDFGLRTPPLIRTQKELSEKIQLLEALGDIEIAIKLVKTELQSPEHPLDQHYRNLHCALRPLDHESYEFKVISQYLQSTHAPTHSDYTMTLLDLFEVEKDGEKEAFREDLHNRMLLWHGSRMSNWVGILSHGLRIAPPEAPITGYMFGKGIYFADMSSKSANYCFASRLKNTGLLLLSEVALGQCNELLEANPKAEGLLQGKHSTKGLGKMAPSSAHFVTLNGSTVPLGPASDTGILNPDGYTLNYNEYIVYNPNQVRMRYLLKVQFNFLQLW
T1 sequence (P09874 whole entry): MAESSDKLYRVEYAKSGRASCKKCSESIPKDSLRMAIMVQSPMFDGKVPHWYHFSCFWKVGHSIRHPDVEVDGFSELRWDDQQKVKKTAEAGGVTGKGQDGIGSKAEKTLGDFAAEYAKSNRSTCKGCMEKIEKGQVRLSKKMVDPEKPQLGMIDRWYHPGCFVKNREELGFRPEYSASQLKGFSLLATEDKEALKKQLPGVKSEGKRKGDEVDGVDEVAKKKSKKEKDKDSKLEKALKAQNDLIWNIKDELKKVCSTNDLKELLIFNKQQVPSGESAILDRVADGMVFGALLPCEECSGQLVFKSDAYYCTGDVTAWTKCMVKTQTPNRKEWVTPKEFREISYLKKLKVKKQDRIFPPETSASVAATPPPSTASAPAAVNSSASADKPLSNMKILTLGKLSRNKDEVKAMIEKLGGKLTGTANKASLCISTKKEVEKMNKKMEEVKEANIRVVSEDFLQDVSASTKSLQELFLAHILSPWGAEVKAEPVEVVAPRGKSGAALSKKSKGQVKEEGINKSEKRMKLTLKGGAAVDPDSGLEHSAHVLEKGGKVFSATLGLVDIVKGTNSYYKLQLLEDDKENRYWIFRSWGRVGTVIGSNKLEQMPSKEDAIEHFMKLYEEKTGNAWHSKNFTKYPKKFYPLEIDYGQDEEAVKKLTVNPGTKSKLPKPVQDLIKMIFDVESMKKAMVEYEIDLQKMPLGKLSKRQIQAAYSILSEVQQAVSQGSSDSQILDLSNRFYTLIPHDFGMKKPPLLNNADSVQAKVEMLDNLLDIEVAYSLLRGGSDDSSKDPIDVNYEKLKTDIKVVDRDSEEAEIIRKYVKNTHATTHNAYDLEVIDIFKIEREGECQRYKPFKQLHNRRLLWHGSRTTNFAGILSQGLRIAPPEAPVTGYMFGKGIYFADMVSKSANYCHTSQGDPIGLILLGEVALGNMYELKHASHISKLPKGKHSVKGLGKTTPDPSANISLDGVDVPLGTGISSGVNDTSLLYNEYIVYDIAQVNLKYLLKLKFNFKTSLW

For orientation: IC50 means the concentration that inhibits the measured activity by half. For the molecule `CNC(=O)c1ccc(N2CCC(N3CCC(c4ccc(CC5CC5)c(=O)[nH]4)C3)CC2)cn1` (single isomer, unassigned) [Compound 213b], the concentration for half-maximal inhibition (IC50) in test [1] (setting [4]) is less than 10 nM. Also, the Selectivity entry in test [2] (probe displacement HTRF) is listed as “+++ (+++ indicate a value of at least 100)”. Also, the Kd in test [2] (setting [5]) was less than 10 nM; in test [3] (PARP2 probe displacement HTRF) it was 100 to 1000 nM.

Turning to `CNC(=O)c1ccc(N2CCC(N3CCC(c4cc5ccc(F)cc5c(=O)[nH]4)C3)CC2)c(Cl)n1` (single isomer, unassigned) [Compound 223a], in test [1] (setting [6]), the IC50 is less than 10 nM. The Selectivity entry in test [2] (probe displacement HTRF) is “+++ (+++ indicate a value of at least 100)”. The Kd is less than 10 nM in test [2] (setting [7]) and 100 to 1000 nM in test [3] (probe displacement HTRF).

For `CNC(=O)c1ccc(N2CCC(N3CCC(c4nc5c(C(F)(F)F)c[nH]c5c(=O)[nH]4)C3)CC2)cn1` (single isomer, unassigned) [Compound 293a], in test [1] (setting [6]), the 50% inhibitory concentration (IC50) was more than 10000 nM. In test [2] (probe displacement HTRF), the Selectivity result is reported as “− (− indicates a value of less than 10)”. Besides, the Kd in test [2] (setting [7]) and in test [3] (probe displacement HTRF) was more than 10000 nM throughout.

With `CNC(=O)c1ccc(N2CCC(N3CCC(c4cc5cccc(F)c5c(=O)[nH]4)C3)CC2)c(C)n1` (single isomer, unassigned) [Compound 206b], the half-inhibitory concentration (IC50) in test [1] (setting [4]) is less than 10 nM. Further, the Selectivity entry in test [2] (probe displacement HTRF) was “+++ (+++ indicate a value of at least 100)”. The Kd in test [2] (setting [5]) is less than 10 nM; in test [3] (PARP2 probe displacement HTRF) it was 1000 to 10000 nM.

On to `CNC(=O)c1ccc(N2CCC(N3CCC(c4ccc(CCOC)c(=O)[nH]4)C3)CC2)cn1` (single isomer, unassigned) [Compound 240a], for which the IC50 in test [1] (setting [6]) lay in the range of 10 to 100 nM. Further, the Selectivity result in test [2] (probe displacement HTRF) was “++ (++ indicates a value of 50 to less than 100)”. The results for the Kd in test [2] (setting [7]) and in test [3] (probe displacement HTRF) were 10 to 100 nM and more than 10000 nM, respectively.

With `CNC(=O)c1ccc(N2CCC(N3CCCC(c4nc5ccccc5c(=O)[nH]4)C3)CC2)cn1` (single isomer, unassigned) [Compound 6b, N-methyl-5-(3-(4-oxo-3,4-dihydroquinazolin-2-yl)-[1,4′-bipiperidin]-1′-yl)picolinamide], in test [1] (setting [4]), the half-inhibitory concentration (IC50) lay in the range of 100 to 1000 nM. Moreover, the Kd was 100 to 1000 nM in test [2] (setting [8]) and 1000 to 10000 nM in test [3] (PARP2 probe displacement HTRF). Moreover, the Selectivity result in test [2] (probe displacement HTRF) was “+ (+ indicates a value of 10 to less than 50)”.

On to `CNC(=O)c1ccc(N2CCC(N3CCC(c4ccc(COC)c(=O)[nH]4)C3)CC2)cn1` (single isomer, unassigned) [Compound 207a], for which the IC50 in test [1] (setting [4]) is less than 10 nM. Further, in test [2] (probe displacement HTRF), the Selectivity result is reported as “+++ (+++ indicate a value of at least 100)”. Also, the Kd is less than 10 nM in test [2] (setting [5]) and more than 10000 nM in test [3] (PARP2 probe displacement HTRF).

With `CNC(=O)c1ccc(N2CCC(N3CC4(c5nc6c(c(=O)[nH]5)CCCC6)CC3C4)CC2)cn1` [Compound 361, N-methyl-5-(4-(4-(4-oxo-3,4,5,6,7,8-hexahydroquinazolin-2-yl)-2-azabicyclo[2.1.1]hexan-2-yl)piperidin-1-yl)picolinamide], in test [1] (setting [6]), the IC50 is less than 10 nM. In addition, the Kd was less than 10 nM in test [2] (PARP1 HTRF, probe displacement HTRF) and 100 to 1000 nM in test [3] (probe displacement HTRF). Also, in test [2] (probe displacement HTRF), the Selectivity result is listed as “+++ (+++ indicate a value of at least 100)”.

Turning to `CNC(=O)c1ccc(N2CCC(N3CCCC(c4cc5ccccc5c(=O)[nH]4)C3)CC2)cn1` (single isomer, unassigned) [Compound 100a], the IC50 in test [1] (setting [4]) was less than 10 nM. Further, the Selectivity result in test [2] (probe displacement HTRF) is on record as “+++ (+++ indicate a value of at least 100)”. The Kd in test [2] (setting [5]) was less than 10 nM; in test [3] (PARP2 probe displacement HTRF), 100 to 1000 nM.

Regarding `CNC(=O)c1ccc(N2CCC(N3CCC(O)(c4nc5ccccc5c(=O)[nH]4)C3)CC2)cn1` (single isomer, unassigned) [Compound 140b], the concentration for half-maximal inhibition (IC50) in test [1] (setting [4]) lay within 10 to 100 nM. Moreover, the Selectivity result in test [2] (probe displacement HTRF) is listed as “+++ (+++ indicate a value of at least 100)”. For the same molecule, the Kd was 10 to 100 nM in test [2] (setting [5]) and 1000 to 10000 nM in test [3] (PARP2 probe displacement HTRF).

On to `N#Cc1ccc(N2CCC(N3CCCC(c4nc5ccccc5c(=O)[nH]4)C3)CC2)cn1` (single isomer, unassigned) [Compound 70a], for which the concentration for half-maximal inhibition (IC50) in test [1] (setting [4]) lay in the range of 10 to 100 nM. Moreover, the Selectivity result in test [2] (probe displacement HTRF) is recorded as “+ (+ indicates a value of 10 to less than 50)”. Further, the Kd was in the range of 100 to 1000 nM in test [2] (setting [5]) and 1000 to 10000 nM in test [3] (PARP2 probe displacement HTRF).

Consider `CCc1ccc(C2CCCN(C3CCN(c4ccc(C(=O)NC)nc4)CC3)C2)[nH]c1=O` (single isomer, unassigned) [Compound 53a, 5-{4-[3-(5-ethyl-6-oxo-1H-pyridin-2-yl)piperidin-1-yl]piperidin-1-yl}-N-methylpyridine-2-carboxamide], for which the half-maximal inhibitory concentration (IC50) in test [1] (setting [4]) was less than 10 nM. The Kd in test [2] (setting [8]) was less than 10 nM; in test [3] (PARP2 probe displacement HTRF) it was 1000 to 10000 nM. In addition, the Selectivity entry in test [2] (probe displacement HTRF) is “+++ (+++ indicate a value of at least 100)”.

For `O=C(NCCF)c1ccc(N2CCC(N3CCC(c4nc5ccccc5c(=O)[nH]4)C3)CC2)cn1` (single isomer, unassigned) [Compound 117a], the 50% inhibitory concentration (IC50) in test [1] (setting [4]) lay within 10 to 100 nM. Moreover, the Selectivity entry in test [2] (probe displacement HTRF) was “+ (+ indicates a value of 10 to less than 50)”. Also, the Kd in test [2] (setting [5]) lay within 10 to 100 nM; in test [3] (PARP2 probe displacement HTRF), 100 to 1000 nM.

As for `NC(=O)c1ccc(N2CCC(N3CCCC(c4nc5ccccc5c(=O)[nH]4)C3)CC2)cn1` (single isomer, unassigned) [Compound 109a], the IC50 in test [1] (setting [4]) was 10 to 100 nM. For the same molecule, the Selectivity result in test [2] (probe displacement HTRF) was “+++ (+++ indicate a value of at least 100)”. The Kd was less than 10 nM in test [2] (setting [5]) and more than 10000 nM in test [3] (PARP2 probe displacement HTRF).

`CNC(=O)c1ccc(N2CCC(N3CCC(c4cc5cccc(OC)c5c(=O)[nH]4)C3)CC2)cn1` (single isomer, unassigned) [Compound 249a]: in test [1] (setting [6]), the half-inhibitory concentration (IC50) is 1000 to 10000 nM. Further, in test [2] (probe displacement HTRF), the Selectivity entry was “− (− indicates a value of less than 10)”. For the same molecule, the Kd in test [2] (setting [7]) was 1000 to 10000 nM; in test [3] (probe displacement HTRF), more than 10000 nM.

Take `CC(=O)NC(=O)c1ccc(N2CCC(N3CCC(c4cc5ccccc5c(=O)[nH]4)C3)CC2)cc1` (single isomer, unassigned) [Compound 341b]: in test [1] (setting [6]), the 50% inhibitory concentration (IC50) lay within 10 to 100 nM. Further, the Selectivity entry in test [2] (probe displacement HTRF) is “+ (+ indicates a value of 10 to less than 50)”. The Kd is 10 to 100 nM in test [2] (setting [7]) and 100 to 1000 nM in test [3] (probe displacement HTRF).

With `O=c1[nH]c(CC2CCCN(C3CCC(F)(F)CC3)C2)nc2ccccc12` (single isomer, unassigned) [Compound 11a], the half-maximal inhibitory concentration (IC50) in test [1] (setting [4]) fell in the range of 1000 to 10000 nM. In addition, the Selectivity result in test [2] (probe displacement HTRF) was “− (− indicates a value of less than 10)”. The Kd in test [2] (setting [5]) is 100 to 1000 nM; in test [3] (PARP2 probe displacement HTRF) it was more than 10000 nM.

Consider `CNC(=O)c1ccc(N2CCC(N3CCC(c4nc5c(F)cccc5c(=O)[nH]4)C3)CC2)cn1` (single isomer, unassigned) [Compound 121a], for which the IC50 in test [1] (setting [4]) lay in the range of 10 to 100 nM. Moreover, in test [2] (probe displacement HTRF), the Selectivity result is “+ (+ indicates a value of 10 to less than 50)”. Besides, the results for the Kd in test [2] (setting [5]) and in test [3] (PARP2 probe displacement HTRF) were 10 to 100 nM and 100 to 1000 nM, respectively.

Turning to `CC(=O)NC(=O)c1ccc(N2CCC(N3CCC(c4cc5ccccc5c(=O)[nH]4)C3)CC2)cn1` (single isomer, unassigned) [Compound 333b], the IC50 in test [1] (setting [6]) was 10 to 100 nM. Besides, the Selectivity entry in test [2] (probe displacement HTRF) is “+++ (+++ indicate a value of at least 100)”. The Kd in test [2] (setting [7]) was 10 to 100 nM; in test [3] (probe displacement HTRF), 1000 to 10000 nM.

For the molecule `CNC(=O)c1ccc(N2CCC(N3CCC(c4nc5c(c(=O)[nH]4)CCCN5)C3)CC2)cn1` (single isomer, unassigned) [Compound 214b], in test [1] (setting [4]), the concentration for half-maximal inhibition (IC50) was less than 10 nM. In test [2] (probe displacement HTRF), the Selectivity entry is “+++ (+++ indicate a value of at least 100)”. For the same molecule, the figures for the Kd in test [2] (setting [5]) and in test [3] (PARP2 probe displacement HTRF) were less than 10 nM and 100 to 1000 nM, respectively.
